How the values were obtained:
[1] = test system: ALS (acetolactate syntase); experiment: ALS enzyme assay (Test 1); format: biochemical, pea; conditions: 1,000 ppm (0.5 mg/0.5 ml)
In short: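 Partially purified ALS from dark-grown pea and barnyardgrass seedlings incubated 1 h at 30° C with pyruvate, TPP, MgCl2 and FAD. Compounds tested at 1,000 ppm (0.5 mg/0.5 ml). Acetoin formed detected colorimetrically at 525 nm via creatine/α-naphthol, relative to blank and acid-stopped controls.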

[2] = test system: barnyardgrass; experiment: Upland soil application test (Test 2); format: in vivo; conditions: 30 g ai/a, soil spray before emergence, 30 days later
In short: (§1)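 Pre-emergence soil spray, greenhouse. Weed seeds mixed through upland soil; crops sown alongside. Day 1 post-sowing: wettable-powder formulation, water-diluted, applied at 10 l/are by pressure ULV sprayer. Read at 30 days as air-dried weight vs untreated pots, scored on a graded damage scale.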

[3] = test system: common lambsquarters; experiment: Upland soil application test (Test 2); format: in vivo; conditions: 30 g ai/a, soil spray before emergence, 30 days later
In short: as §1

[4] = test system: foxtail meadow; experiment: Upland soil application test (Test 2); format: in vivo; conditions: 30 g ai/a, soil spray before emergence, 30 days later
In short: as §1

[5] = test system: green foxtail; experiment: Upland soil application test (Test 2); format: in vivo; conditions: 30 g ai/a, soil spray before emergence, 30 days later
In short: as §1

[6] = test system: johnsongrass; experiment: Upland soil application test (Test 2); format: in vivo; conditions: 30 g ai/a, soil spray before emergence, 30 days later
In short: as §1

[7] = test system: large crabgrass; experiment: Upland soil application test (Test 2); format: in vivo; conditions: 30 g ai/a, soil spray before emergence, 30 days later
In short: as §1

[8] = test system: redroot pigweed; experiment: Upland soil application test (Test 2); format: in vivo; conditions: 30 g ai/a, soil spray before emergence, 30 days later
In short: as §1

[9] = test system: cotton; experiment: Upland soil application test (Test 2), crop injury; format: in vivo; conditions: 30 g ai/a, soil spray before emergence, 30 days later
In short: (§2)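 Pre-emergence test in upland soil pots with weed seeds mixed into the soil; one day after seeding, wettable-powder formulation diluted in water and sprayed onto the soil surface at 10 l per are. Damage scored 30 days later from air-dried weight relative to untreated pots.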

[10] = test system: peanut; experiment: Upland soil application test (Test 2), crop injury; format: in vivo; conditions: 30 g ai/a, soil spray before emergence, 30 days later
In short: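 Soil-surface application of water-diluted wettable powder at 10 l per are, made one day after seeding and ahead of weed emergence. Plants stayed in the greenhouse for 30 days; injury was rated by air-dried weight versus untreated pots.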

[11] = test system: soybean; experiment: Upland soil application test (Test 2), crop injury; format: in vivo; conditions: 30 g ai/a, soil spray before emergence, 30 days later
In short: as §2

[12] = test system: Sagittaria pygmaea; experiment: Treatment of soil under submerged condition, pre-emergence (Test 4); format: in vivo; conditions: 30 g ai/a granule, 30 days later
In short: (§3)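 Under submerged conditions, pots carrying weed propagules and transplanted young rice (2–3 leaves) were given a granulated test composition one day after planting, ahead of weed emergence. Plants grew in a greenhouse, with weed emergence and crop injury read 30 days after treatment.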

[13] = test system: barnyardgrass; experiment: as above; format: in vivo; conditions: 30 g ai/a granule, 30 days later
In short: as §3

[14] = test system: bulrush; experiment: as above; format: in vivo; conditions: 30 g ai/a granule, 30 days later
In short: as §3

[15] = test system: rice; experiment: Treatment of soil under submerged condition, pre-emergence (Test 4), injury; format: in vivo; conditions: 30 g ai/a granule, 30 days later
In short: as §3

[16] = test system: Sagittaria pygmaea; experiment: Treatment of soil under submerged condition, post-emergence (Test 5); format: in vivo; conditions: 30 g ai/a granule, 30 days later
In short: (§4)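 Flooded pots; weed seeds/tubers sown, rice (2–3 leaf) transplanted as paired seedlings, greenhouse. Granular formulation applied post-emergence when barnyardgrass reached 2 leaves. Scored 30 d after treatment for weed damage and rice injury.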

[17] = test system: barnyardgrass; experiment: as above; format: in vivo; conditions: 30 g ai/a granule, post-emergence (barnyardgrass two-leaf stage), 30 days later
In short: as §4

[18] = test system: bulrush; experiment: as above; format: in vivo; conditions: 30 g ai/a granule, 30 days later
In short: as §4

| Inhibitory activity (%) Pea [1] [%] | SMILES | Herbicidal effects Barnyardgrass [2] | Herbicidal effects Common lambsquarters [3] | Herbicidal effects Foxtail meadow [4] | Herbicidal effects Green foxtail [5] | Herbicidal effects Johnsongrass [6] | Herbicidal effects Large crabgrass [7] | Herbicidal effects Redroot pigweed [8] | Injury Cotton [9] | Injury Peanut [10] | Injury Soybean [11] | Herbicidal effects Sagittaria Pygmaea [12] | Herbicidal effects Barnyardgrass [13] | Herbicidal effects Bulrush [14] | Injury Rice [15] | Herbicidal effects Sagittaria Pygmaea [16] | Herbicidal effects Barnyardgrass [17] | Herbicidal effects Bulrush [18] |
| --- | --- | --- | --- | --- | --- | --- | --- | --- | --- | --- | --- | --- | --- | --- | --- | --- | --- | --- |
| 0 | C=CCON=Cc1ccccc1Oc1nc(OC)cc(OC)n1 [Compound No. 4] | 5 (0-5 (Death)) | 3 (11-40 (Medium damages)) | 5 (0-5 (Death)) | 5 (0-5 (Death)) | 5 (0-5 (Death)) | 4 (6-10 (Severe damages)) | 4 (6-10 (Severe damages)) | 0 (91-100 (No damages)) | 0 (91-100 (No damages)) | 0 (91-100 (No damages)) | 4 (6-10 (Severe damages)) | 4 (6-10 (Severe damages)) | 4 (6-10 (Severe damages)) | 0 (91-100 (No damages)) | 3 (11-40 (Medium damages)) | 5 (0-5 (Death)) | 4 (6-10 (Severe damages)) |
| 0 | COc1cc(OC)nc(Oc2ccccc2C=NOCc2cccc3ccccc23)n1 [compound 22] | 3 (11-40 (Medium damages)) | 3 (11-40 (Medium damages)) | 4 (6-10 (Severe damages)) | 4 (6-10 (Severe damages)) | 4 (6-10 (Severe damages)) | 3 (11-40 (Medium damages)) | 3 (11-40 (Medium damages)) | 0 (91-100 (No damages)) | 0 (91-100 (No damages)) | 0 (91-100 (No damages)) | 3 (11-40 (Medium damages)) | 3 (11-40 (Medium damages)) | 3 (11-40 (Medium damages)) | 0 (91-100 (No damages)) | 3 (11-40 (Medium damages)) | 5 (0-5 (Death)) | 4 (6-10 (Severe damages)) |
| 72 | COC(=O)c1ccccc1Oc1nc(OC)cc(OC)n1 [A, reference compound] | 5 (0-5 (Death)) | 4 (6-10 (Severe damages)) | 5 (0-5 (Death)) | 5 (0-5 (Death)) | 5 (0-5 (Death)) | 5 (0-5 (Death)) | 5 (0-5 (Death)) | 5 (0-5 (Death)) | 5 (0-5 (Death)) | 5 (0-5 (Death)) | 4 (6-10 (Severe damages)) | 5 (0-5 (Death)) | 5 (0-5 (Death)) | 5 (0-5 (Death)) | 4 (6-10 (Severe damages)) | 5 (0-5 (Death)) | 4 (6-10 (Severe damages)) |
| 0 | CCCC=CCON=Cc1ccccc1Oc1nc(OC)cc(OC)n1 [compound 25] | 4 (6-10 (Severe damages)) | 4 (6-10 (Severe damages)) | 5 (0-5 (Death)) | 5 (0-5 (Death)) | 5 (0-5 (Death)) | 5 (0-5 (Death)) | 4 (6-10 (Severe damages)) | 0 (91-100 (No damages)) | 0 (91-100 (No damages)) | 0 (91-100 (No damages)) | 4 (6-10 (Severe damages)) | 5 (0-5 (Death)) | 3 (11-40 (Medium damages)) | 1 (71-90 (Slight damages)) | 3 (11-40 (Medium damages)) | 4 (6-10 (Severe damages)) | 5 (0-5 (Death)) |
